According to patent US20100279976A1, “USE OF ARTEMISININ AND ITS DERIVATIVES IN CANCER THERAPY” (SHANGHAI INSTITUTES FOR BIOLOGICAL SCIENCES, CAS, priority 2009, published 2010):
Like-named read-outs stand apart in the source and are kept apart here.

Legend:
[1] = test system: Huh-7 hepatoma cells (p53 mutant); assay: MTT cell viability assay, Huh-7; assay type: cell-based; settings: Homo sapiens, Huh-7 (p53 mutant), 48 h
Experimental: (§1) The effects of ART derivatives on the viability of the aforementioned cells may be determined using the MTT assay. Briefly, 2,000 cells per well were plated in triplicate in 96-well plates. After a 24-h incubation, the cells may be treated with varying concentrations of ART derivatives (0, 1, 5, 10, 25, 50, and 100 μmol/L) for 48 h. The MTT assay may be performed according to the manufacture's instruction and the resultant formazan crystals may be dissolved in DMSO (100 μL). The absorbance may be then recorded at 540 nm. The effects of ART derivatives on cell viability may be assessed by comparing the percent cell viability of the treated cells with the vehicle (DMSO)-treated control cells, which may be arbitrarily assigned at 100% viability. The experiment may be repeated thrice under the same conditions.

[2] = test system: Hep3B xenograft tumors; assay: Hep3B xenograft model in nude mice; assay type: in vivo
Experimental: (§2) Female athymic nude mice (nu/nu; 4-6 wk of age) may be obtained from Shanghai Slac Laboratory Animal Co. Ltd. All animals may be fed with commercial diet and water ad libitum. The human HCC xenograft models in mice may be as follows. Briefly, HepG2 and Hep3B cells may be re-suspended in serum-free DMEM with Matrigel basement membrane matrix at a 5:1 ratio. The cell suspension may then be injected (7×10^6 cells; total volume, 0.2 mL) into the left inguinal area of the BALB/c nude mice. The animals may be monitored for activity and physical condition everyday, and the determination of body weight and measurement of tumor mass may be done every 3 d. Tumor mass may be determined by caliper measurement in two perpendicular diameters of the implant and calculated using the formula ½a×b^2, where a stands for the long diameter and b is the short diameter. The animal use and care protocol is approved by the Institutional Review Board of the Institute for Nutritional Sciences, Chinese Academy of Sciences.
(§3) Nude mice bearing HepG2 and Hep3B xenografts, randomly divided into various treatment and control groups (five mice per group), may be treated orally with either ART or DHA suspended in 5% sesame oil+95% saline, at a dose of 50 or 100 mg/kg/d, or a combination of ART or DHA with gemcitabine or with saline (as controls). In the mice receiving combination therapy, 80 mg/kg gemcitabine, representing one fifth of the reported most tolerated dose in mice, may be administered i.p. on days 7, 11, and 15 to avoid possible side effects and to illustrate potential chemo-sensitization effects in this combination regimen.

[3] = test system: ovarian cancer cells; assay: MTT cell viability assay, ovarian cancer cells (line not specified); assay type: cell-based; settings: Homo sapiens, 48 hrs, read-out: inhibition of viability
Experimental: as §1

[4] = test system: HepG2 xenograft tumors; assay: HepG2 xenograft model in nude mice; assay type: in vivo; settings: for tumor growth inhibition: HepG2 xenograft, 5 d/wk for 4 wk
Experimental: as §2, §3

[5] = test system: A2780 xenograft tumors; assay type: in vivo; settings: for tumor growth inhibition: A2780 xenograft, 5 days/week
Experimental: Four to six week old female athymic nude mice (BALB/c, nu/nu) may be purchased from Shanghai Experimental Animal Center (Shanghai, China). Animal studies are approved by the Institute for Nutritional Sciences. The tumor xenograft model may be established as follows. […] Aliquots of cells (˜5×10^6 cells/0.2 ml) may be injected subcutaneously into the left inguinal area of the mice. The tumor growth and body weight of the mice may be monitored every other day. Tumor mass may be determined. Mice bearing palpable tumors (˜70 mg) may be randomly divided into treatment and control groups n=5 mice/group). CBP may be dissolved in saline, and DHA may be dissolved in cremophor EL:ethanol:saline (5:5:90, v/v/v). DHA may be administered via i.p. injection at doses of 10 and 25 mg/kg/5 days/week for 3 weeks) alone or combined with CBP (at a single dose of 120 mg/kg, once on day 0). The control group receives saline only. Mice may be killed on day 18. Tumors may be carefully excised, trimmed of extraneous fat or connective tissue, and homogenized in RIPA buffer (100 mg tumor tissue/1 ml RIPA) and prepared for immunoblotting analysis as described above.

[6] = test system: HepG2 cells; assay: Western blot of apoptosis-related proteins; assay type: cell-based, human; settings: HepG2, 48 h
Experimental: Whole-cell lysates may be generated with radioimmunoprecipitation assay lysis buffer, and after centrifugation, the supernatant fraction may be collected for immunoblotting. Proteins may be resolved by SDS-PAGE and transferred onto a nitrocellulose membrane. After blocking with 5% nonfat milk in blocking buffer [20 mmol/L TBS (pH 7.5) containing 0.1% Tween 20], the membrane may be incubated with the desired primary antibody for 2 h at room temperature and then incubated with appropriate peroxidase conjugated secondary antibody. The immunoreactive bands may be visualized using the ECL Plus Western Blotting Detection System. The level of ([…] for each sample may be used as loading control. Tumor tissues may be collected at the termination of the experiment and homogenized using a homogenizer in ice-cold lysis buffer. Supernatants may be collected and used to examine the expression of different proteins by Western blot analysis.

[7] = test system: HepG2 cells; assay: Annexin V-FITC apoptosis assay, HepG2; assay type: cell-based, human
Experimental: ART- and DHA-induced apoptosis alone or in combination with gemcitabine in HepG2 and Hep3B cells or in combination with carboplatin in ovarian cancer cells may be determined by flow cytometry using the Annexin V-FITC Apoptosis Detection kit following the manufacturer's instructions. Briefly, 2×10^5 cells may be treated with ART and DHA ([…]) or 10 μg/L gemcitabine for 48 h. The cells may then be harvested, washed in PBS, and incubated with Annexin V and propidium iodide for staining in binding buffer at room temperature for 10 min in the dark. The stained cells may be analyzed using the FACSAria instrument.

[8] = HepG2 xenograft tissue, Western blot

Q: What does the source list for `C[C@H]1[C@@H](O)O[C@@H]2O[C@@]3(C)CC[C@H]4[C@H](C)CC[C@@H]1[C@@]24OO3` [DHA, dihydroartemisinin]?
A: IC20 [1]: 0.7 µM; IC50 [1]: 9.6 µM; IC80 [1]: 131 µM; toxic effects (body weight) ([2]; Hep3B xenograft mice): Neither compound causes any observable toxic effects; cytotoxicity at 1 µM ([3]; 1 μM): 24%; cytotoxicity at 500 µM ([3]; 500 μM): 95%; toxic effects based on observations of bodyweight ([4]; HepG2 xenograft mice, alone or in combination with gemcitabine): neither ART nor DHA causes any observable toxic effects; tumor growth inhibition ([4]; oral 50 mg/kg/d): 36.1%; tumor growth inhibition ([4]; oral 100 mg/kg/d): 60.6%; tumor growth inhibition ([5]; DHA 10 mg/kg i.p., vs saline control): 24%; tumor growth inhibition ([5]; DHA 25 mg/kg i.p.): 41%; host toxicity based on observation of body weight ([5]; mice bearing A2780 or OVCAR-3 xenografts): No other host toxicities are observed

Q: `C[C@@H]1CC[C@H]2[C@@H](C)C(=O)O[C@@H]3O[C@@]4(C)CC[C@@H]1[C@]32OO4` [ART, artemisinin] was tested. Which MDM2 level [6] did it give?
A: The MDM2 level was “decrease”.

Q: What about the “cleavage of caspase-3 and PARP” value [6] of the same compound?
A: The value was “dose-dependent increase”.

Q: What about the “level of Bax” value [6] of the same compound?
A: The value was “concomitant increase”.

Q: What about the “level of Bcl-2 protein” value [6] of the same compound?
A: Its value is “dose-dependent reduction”.

Q: And the p53 level [6]?
A: The p53 level was “dose-dependent increase”.

Q: And the IC20 [1]?
A: Its IC20 is 0.7 µM.

Q: And the IC50 [1]?
A: Its IC50 is 8.9 µM.

Q: And the IC80 [1]?
A: The IC80 was 115 µM.

Q: And the “effect on tumor growth” value ([2]; Hep3B xenograft, oral 50 and 100 mg/kg/d, alone)?
A: Its value is “slight inhibitory effect on tumor growth”.

Q: What about the “toxic effects (body weight)” value ([2]; mouse, in vivo) of the same compound?
A: Its value is “Neither compound causes any observable toxic effects”.

Q: What about the “G1-specific Cdks, cyclin D1, cyclin E, Cdk2, Cdk4, and E2F1 in tumor tissue” value [4, 8] of the same compound?
A: The value was “decrease”.

Q: And the “MDM2 in tumor tissue” value [4, 8]?
A: The value was “decrease”.

Q: And the “activated caspase-3, cleaved PARP, Rb, p53, and the ratio of Bax/Bcl-2 in tumor tissue” value [4, 8]?
A: Its value is “increases”.

Q: What about the “p21 and p27 in tumor tissue” value [4, 8] of the same compound?
A: Its value is “increase”.

Q: And the tumor growth inhibition ([4]; oral 50 mg/kg/d)?
A: Its tumor growth inhibition is 30.0%.

Q: And the tumor growth inhibition ([4]; oral 100 mg/kg/d)?
A: Its tumor growth inhibition is 39.4%.

Q: What about the apoptotic cells ([7]; HepG2, 1 μmol/L, 48 h (0 μmol/L: 7%)) of the same compound?
A: Its apoptotic cells is 9%.

Q: What about the apoptotic cells ([7]; HepG2, 10 μmol/L, 48 h) of the same compound?
A: Its apoptotic cells is 14.95%.

Q: What about the apoptotic cells ([7]; HepG2, 25 μmol/L, 48 h) of the same compound?
A: The apoptotic cells was 15.45%.

Q: And the apoptotic cells ([7]; HepG2, 50 μmol/L, 48 h)?
A: The apoptotic cells was 16.45%.
